Experimental data taken from ChEMBL document CHEMBL1156355, “Phenolic compounds from Miconia myriantha inhibiting Candida aspartic proteases” (J Nat Prod, 2001).

Experiments:
[1] = Inhibition of pepsin
[2] = Inhibition of Candida albicans ATCC 10231 secreted aspartic protease

IC50 [1] [µM] | IC50 [2] [µM] | Structure (SMILES)
66.6 | 8.4 | COc1ccc([C@@H]2CC(=O)c3c(O)c(C)c(O[C@@H]4O[C@@H]5COC(=O)c6cc(O)c(O)c(O)c6-c6c(cc(O)c(O)c6O)C(=O)O[C@H]5[C@H](O)[C@H]4O)c(C)c3O2)cc1
37.1 | 10.5 | O=c1oc2c(O)c(O)cc3c(=O)oc4c(O)c(O)cc1c4c23 [ELLAGIC ACID]
0.31 | 0.016 | CC(C)CC(=O)N[C@H](C(=O)N[C@H](C(=O)N[C@@H](CC(C)C)[C@@H](O)CC(=O)N[C@@H](C)C(=O)N[C@@H](CC(C)C)[C@@H](O)CC(=O)O)C(C)C)C(C)C [PEPSTATIN]
